Results taken from patent US6348309B1, “Process for inactivating viruses in blood and blood products” (priority 1989, dated 2002).
Marks after values point to notes of the source that are not given here.

Experiments:
[1] = system: HIV-2; test: MB/light virus inactivation in plasma (Example 6, Table VI); format: cell-based; conditions: illumination 15 min; * production conditions, plastic bag 250-300 ml plasma
[2] = system: Sindbis; format: cell-based
[3] = biological target: T1, factor V (Homo sapiens, UniProt P12259); test: Factor V content of plasma after MB and adsorbing agent (Example 14); format: biochemical; conditions: fresh plasma + MB 10 μM, no adsorbing agent
T1 construct: MB was added to 250 ml fresh plasma; from tissue; host or cells: fresh plasma
T1 sequence (P12259 29-2224): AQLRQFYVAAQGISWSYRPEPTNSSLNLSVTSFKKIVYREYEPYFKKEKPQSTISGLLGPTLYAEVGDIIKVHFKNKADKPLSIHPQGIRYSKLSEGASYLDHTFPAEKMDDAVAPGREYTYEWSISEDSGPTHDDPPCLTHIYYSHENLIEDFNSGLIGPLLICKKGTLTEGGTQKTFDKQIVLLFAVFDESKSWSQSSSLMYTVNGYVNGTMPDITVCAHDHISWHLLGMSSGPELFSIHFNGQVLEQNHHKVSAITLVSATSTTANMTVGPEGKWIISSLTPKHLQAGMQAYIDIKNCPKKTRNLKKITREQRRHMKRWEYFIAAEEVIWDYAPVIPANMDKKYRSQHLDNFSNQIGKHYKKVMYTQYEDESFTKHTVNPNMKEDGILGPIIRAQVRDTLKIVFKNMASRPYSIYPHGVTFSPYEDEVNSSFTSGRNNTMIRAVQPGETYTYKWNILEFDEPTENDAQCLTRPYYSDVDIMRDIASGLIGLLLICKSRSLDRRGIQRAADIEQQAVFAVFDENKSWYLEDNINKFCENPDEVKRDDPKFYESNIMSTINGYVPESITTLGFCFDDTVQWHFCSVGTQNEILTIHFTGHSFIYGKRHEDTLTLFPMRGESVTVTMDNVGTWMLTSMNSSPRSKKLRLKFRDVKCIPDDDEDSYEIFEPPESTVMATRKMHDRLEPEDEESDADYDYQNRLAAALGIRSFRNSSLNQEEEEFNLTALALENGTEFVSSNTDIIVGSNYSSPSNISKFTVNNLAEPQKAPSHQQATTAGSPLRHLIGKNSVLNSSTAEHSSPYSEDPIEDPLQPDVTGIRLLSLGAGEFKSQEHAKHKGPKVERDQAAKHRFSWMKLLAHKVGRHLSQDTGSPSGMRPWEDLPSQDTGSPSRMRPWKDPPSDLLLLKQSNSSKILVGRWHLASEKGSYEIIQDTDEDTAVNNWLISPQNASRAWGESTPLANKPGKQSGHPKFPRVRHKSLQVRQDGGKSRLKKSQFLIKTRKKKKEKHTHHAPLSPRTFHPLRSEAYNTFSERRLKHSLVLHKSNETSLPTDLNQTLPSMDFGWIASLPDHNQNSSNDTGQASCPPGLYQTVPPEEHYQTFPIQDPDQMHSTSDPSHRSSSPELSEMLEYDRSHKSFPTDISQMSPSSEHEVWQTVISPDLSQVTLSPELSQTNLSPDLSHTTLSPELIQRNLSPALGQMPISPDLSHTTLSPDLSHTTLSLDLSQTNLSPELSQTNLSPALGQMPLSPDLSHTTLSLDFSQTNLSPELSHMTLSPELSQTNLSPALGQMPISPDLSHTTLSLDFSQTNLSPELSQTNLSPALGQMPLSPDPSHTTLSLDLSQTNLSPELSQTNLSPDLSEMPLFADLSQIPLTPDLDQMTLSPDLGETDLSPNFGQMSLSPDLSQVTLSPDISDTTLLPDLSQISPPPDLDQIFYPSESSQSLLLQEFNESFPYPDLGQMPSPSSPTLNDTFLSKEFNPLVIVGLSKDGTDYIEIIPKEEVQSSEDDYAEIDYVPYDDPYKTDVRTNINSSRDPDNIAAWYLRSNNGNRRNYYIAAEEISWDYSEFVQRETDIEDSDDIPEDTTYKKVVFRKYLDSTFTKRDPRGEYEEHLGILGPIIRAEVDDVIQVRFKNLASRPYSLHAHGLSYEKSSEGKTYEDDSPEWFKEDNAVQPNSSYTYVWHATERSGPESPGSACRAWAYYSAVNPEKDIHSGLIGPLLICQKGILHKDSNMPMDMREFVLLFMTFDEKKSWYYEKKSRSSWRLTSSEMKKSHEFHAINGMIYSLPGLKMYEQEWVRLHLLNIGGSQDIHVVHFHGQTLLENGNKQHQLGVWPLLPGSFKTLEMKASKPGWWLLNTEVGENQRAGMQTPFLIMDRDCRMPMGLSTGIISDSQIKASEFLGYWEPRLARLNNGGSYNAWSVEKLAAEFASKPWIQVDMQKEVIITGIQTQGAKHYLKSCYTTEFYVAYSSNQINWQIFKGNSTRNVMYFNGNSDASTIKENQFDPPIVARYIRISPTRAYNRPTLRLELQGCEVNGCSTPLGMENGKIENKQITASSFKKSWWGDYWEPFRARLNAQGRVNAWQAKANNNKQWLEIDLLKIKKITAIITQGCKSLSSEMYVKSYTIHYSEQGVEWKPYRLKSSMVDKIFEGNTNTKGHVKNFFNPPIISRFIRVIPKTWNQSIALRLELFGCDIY

[4] = 1 to 2 mg/kg of body weight; cited from earlier work
[5] = biological target: T2, coagulation factor V (Homo sapiens, UniProt P12259); test: Coagulation factor activity in human plasma right after MB addition (Example 9); format: biochemical; conditions: no light
T2 construct: Varying amounts of MB were added to human plasma (2 ml aliquots); from tissue; host or cells: human plasma
T2 sequence (P12259 29-2224): as above

[6] = system: Calici; format: cell-based
[7] = system: vesicular stomatitis virus (VSV); format: cell-based
[8] = biological target: T3, coagulation factor VIII (Homo sapiens, UniProt P00451); test: Coagulation factor activity in human plasma right after MB addition (Example 9); format: biochemical; conditions: no light
T3 construct: Varying amounts of MB were added to human plasma (2 ml aliquots); from tissue; host or cells: human plasma
T3 sequence (P00451 20-1332 limits assumed): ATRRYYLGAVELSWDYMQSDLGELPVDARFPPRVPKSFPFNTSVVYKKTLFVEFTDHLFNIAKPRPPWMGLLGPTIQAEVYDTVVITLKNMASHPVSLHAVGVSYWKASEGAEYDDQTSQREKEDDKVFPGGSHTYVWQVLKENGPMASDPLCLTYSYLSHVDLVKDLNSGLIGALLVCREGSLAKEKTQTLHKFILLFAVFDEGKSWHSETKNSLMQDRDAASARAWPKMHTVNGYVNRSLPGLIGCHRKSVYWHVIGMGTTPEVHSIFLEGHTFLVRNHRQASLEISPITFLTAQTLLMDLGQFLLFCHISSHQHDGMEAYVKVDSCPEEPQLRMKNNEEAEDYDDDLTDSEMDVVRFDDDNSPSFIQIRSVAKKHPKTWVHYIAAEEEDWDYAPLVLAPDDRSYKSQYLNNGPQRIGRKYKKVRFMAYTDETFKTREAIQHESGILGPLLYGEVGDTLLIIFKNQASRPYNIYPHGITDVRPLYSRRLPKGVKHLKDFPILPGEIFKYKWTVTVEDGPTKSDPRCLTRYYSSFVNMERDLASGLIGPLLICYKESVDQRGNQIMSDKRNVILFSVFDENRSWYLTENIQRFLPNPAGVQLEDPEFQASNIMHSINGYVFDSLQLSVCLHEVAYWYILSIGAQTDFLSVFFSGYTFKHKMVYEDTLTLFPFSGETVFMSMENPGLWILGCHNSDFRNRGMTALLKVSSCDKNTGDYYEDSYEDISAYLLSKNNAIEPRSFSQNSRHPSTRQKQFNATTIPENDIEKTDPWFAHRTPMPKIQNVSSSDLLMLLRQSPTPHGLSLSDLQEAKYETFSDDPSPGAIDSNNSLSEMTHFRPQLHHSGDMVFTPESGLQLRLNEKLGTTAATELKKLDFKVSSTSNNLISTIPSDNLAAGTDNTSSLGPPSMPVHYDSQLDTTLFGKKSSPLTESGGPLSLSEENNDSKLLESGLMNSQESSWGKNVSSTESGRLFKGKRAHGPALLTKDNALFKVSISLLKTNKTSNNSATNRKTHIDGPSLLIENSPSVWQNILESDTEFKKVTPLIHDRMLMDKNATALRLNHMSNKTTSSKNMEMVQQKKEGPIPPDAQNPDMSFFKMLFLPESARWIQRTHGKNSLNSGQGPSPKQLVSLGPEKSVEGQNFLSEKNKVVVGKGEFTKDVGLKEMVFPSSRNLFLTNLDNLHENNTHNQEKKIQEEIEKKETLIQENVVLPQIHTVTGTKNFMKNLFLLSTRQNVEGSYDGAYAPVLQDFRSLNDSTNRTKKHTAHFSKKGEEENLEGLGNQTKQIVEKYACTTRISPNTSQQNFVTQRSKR
T3 sequence (P00451 1668-2351 limits assumed): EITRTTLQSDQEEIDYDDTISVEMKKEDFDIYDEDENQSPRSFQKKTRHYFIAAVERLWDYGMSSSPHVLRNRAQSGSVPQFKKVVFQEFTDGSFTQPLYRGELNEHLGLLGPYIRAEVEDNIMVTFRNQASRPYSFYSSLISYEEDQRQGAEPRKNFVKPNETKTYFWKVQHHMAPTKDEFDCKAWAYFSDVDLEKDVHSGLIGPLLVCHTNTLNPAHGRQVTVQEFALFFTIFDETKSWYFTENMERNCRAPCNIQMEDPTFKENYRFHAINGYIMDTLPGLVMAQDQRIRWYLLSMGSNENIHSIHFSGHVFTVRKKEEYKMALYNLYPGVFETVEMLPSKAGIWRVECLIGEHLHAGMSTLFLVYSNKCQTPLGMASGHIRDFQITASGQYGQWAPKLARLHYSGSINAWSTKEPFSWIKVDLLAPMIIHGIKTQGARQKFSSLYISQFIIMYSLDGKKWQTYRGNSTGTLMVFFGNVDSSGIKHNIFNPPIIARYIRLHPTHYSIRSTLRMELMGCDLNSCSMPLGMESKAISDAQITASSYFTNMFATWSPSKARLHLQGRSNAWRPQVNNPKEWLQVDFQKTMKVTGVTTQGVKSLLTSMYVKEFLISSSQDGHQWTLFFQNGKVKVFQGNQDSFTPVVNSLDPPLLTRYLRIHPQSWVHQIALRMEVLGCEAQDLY

[9] = system: West Nile; test: MB/light virus inactivation in plasma (Example 6, Table VI); format: cell-based; conditions: illumination 60 min
[10] = system: VSV; format: cell-based, vesicular stomatitis virus
[11] = system: HIV-1; test: MB/light treatment of HIV-1 in plasma, infectivity on MT-4 cells (Example 5); format: cell-based

CN(C)c1ccc2nc3ccc(=[N+](C)C)cc-3sc2c1 [MB, methylene blue]
Inactivation Rate [1]: >3.81 * log10 TCID50
Inactivation Rate [2]: >9.73 log10 TCID50
Factor V [3]: 0.96 U/ml
side effects in therapeutic use [4]: without any significant side effects
Factor V ([5]; Methylene Blue 1 μM): 0.76 E/ml
Factor V ([5]; Methylene Blue 2.5 μM): 0.78 E/ml
Factor V ([5]; Methylene Blue 5 μM): 0.74 E/ml
Factor V ([5]; Methylene Blue 10 μM): 0.54 E/ml
Factor V ([5]; Methylene Blue 20 μM): 0.44 E/ml
MB concentration from which factor V activity is inhibited [5]: about 10 μM
Inactivation Rate [6]: >3.9 * log10 TCID50
reduction of infectious titer of VSV by irradiation [7]: more than 6 log10
Factor VIII ([8]; Methylene Blue 1 μM): 0.41 E/ml
Factor VIII ([8]; Methylene Blue 2.5 μM): 0.41 E/ml
Factor VIII ([8]; Methylene Blue 5 μM): 0.38 E/ml
Factor VIII ([8]; Methylene Blue 10 μM): 0.35 E/ml
Factor VIII ([8]; Methylene Blue 20 μM): 0.28 E/ml
MB concentration from which factor VIII activity is inhibited [8]: about 10 μM
Inactivation Rate [9]: >6.50 log10 TCID50
reduction of infectious VSV titer [10]: more than 6 log10
effect of the dye alone on the virus ([11]; MB 1 μM, no illumination): not detrimental to the virus
reduction of viral infectivity ([11]; MB 1 μM, within the first 10 minutes of light exposure): approx. 6 log10 steps
Log10 TCID50/ml HIV-1 ([11]; Sample A, MB 1 μM without light, 0 min): 6.00 Log10 TCID50/ml
Log10 TCID50/ml HIV-1 ([11]; Sample A, MB 1 μM without light, 2 min): 5.94 Log10 TCID50/ml
Log10 TCID50/ml HIV-1 ([11]; Sample A, MB 1 μM without light, 5 min): 5.94 Log10 TCID50/ml
Log10 TCID50/ml HIV-1 ([11]; Sample A, MB 1 μM without light, 10 min): 5.94 Log10 TCID50/ml
Log10 TCID50/ml HIV-1 ([11]; Sample A, MB 1 μM without light, 15 min): 6.06 Log10 TCID50/ml
Log10 TCID50/ml HIV-1 ([11]; Sample A, MB 1 μM without light, 30 min): 5.76 Log10 TCID50/ml
Log10 TCID50/ml HIV-1 ([11]; Sample A, MB 1 μM without light, 60 min): 5.70 Log10 TCID50/ml
Log10 TCID50/ml HIV-1 ([11]; Sample C, MB 1 μM + light 45,000 Lux, exposure 0 min): 5.82 Log10 TCID50/ml
Log10 TCID50/ml HIV-1 ([11]; Sample C, MB 1 μM + light 45,000 Lux, exposure 2 min): 3.37 Log10 TCID50/ml
Log10 TCID50/ml HIV-1 ([11]; Sample C, MB 1 μM + light 45,000 Lux, exposure 5 min): 1.5 Log10 TCID50/ml
Log10 TCID50/ml HIV-1 ([11]; Sample C, MB 1 μM + light 45,000 Lux, exposure 10 min): ≦0.5 Log10 TCID50/ml
Log10 TCID50/ml HIV-1 ([11]; Sample C, MB 1 μM + light 45,000 Lux, exposure 15 min): ≦0.5 Log10 TCID50/ml
Log10 TCID50/ml HIV-1 ([11]; Sample C, MB 1 μM + light 45,000 Lux, exposure 30 min): ≦0.5 Log10 TCID50/ml
Log10 TCID50/ml HIV-1 ([11]; Sample C, MB 1 μM + light 45,000 Lux, exposure 60 min): ≦0.5 Log10 TCID50/ml
